Target: MDM2 (Homo sapiens, UniProt Q00987)
Assay: ITC
Format: binding

Chain of MDM2 (Q00987 428-491 limits assumed): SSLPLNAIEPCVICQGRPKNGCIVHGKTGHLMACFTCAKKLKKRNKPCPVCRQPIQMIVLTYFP

- Kd: 0.37 µM
Structure (SMILES): O=C(CCl)Nc1cc(O)c2c(c1)C(=O)c1cccc(O)c1C2=O [AQ-101]

— PMC6054458 (Molecular cancer therapeutics, 2017)
